Laboratory results as given in paper PMC8443696, “Structural determinants and regulation of spontaneous activity in GABAA receptors” (Nature Communications, 2021).
Where “and” joins values, the source holds several entries; their conditions need not be identical. Equal values may be shown once.

What was measured:
[1] = test system: T1, α4β2δ receptor; test: Quantification of spontaneous activity (Ispont) in HEK cells, whole-cell patch clamp; format: cell-based, mouse; conditions: THDOC 100 nM (Fig. 6b)
T1 construct: expressed in transfected cells; host or cells: HEK 293
From the text: All components were obtained from Life Technologies.
Currents were acquired with Clampex ver.
Cells were voltage clamped at −40 mV.
For assessment of the efficacy of allosteric modulators on spontaneous activity, compounds were briefly applied (3–5 s) to achieve steady-state currents (IMod). […] The IMod was summed with IPTX (or subtracted for inhibitory modulators) and the Ispont calculated, as described by Eq. (2):2 Ispont(%)=[(IPTX+IMod)/(IPTX+IMax)]×100……………………………………

[2] = test system: T2, α4β3δ GABAARs; test: Single-channel recording of spontaneous currents, outside-out patches of HEK cells; format: cell-based, mouse; conditions: 100 nM THDOC, absence of GABA, individual patches
T2 construct: expressed in transfected cells; host or cells: HEK cells (outside-out patches)
Description: To limit ion channel density in individual patches, HEK cells were transfected with 5 ng α4, β3, δ and eGFP cDNAs. Resulting spontaneous single-channel currents were digitised at a sampling rate of 20 kHz and filtered at 5 kHz with a 4-pole Bessel filter (24 dB per octave). A fixed time resolution of 80 μs was used as a preset. Recordings were undertaken using thick-walled borosilicate patch pipettes (6–10 MΩ) filled with a solution containing (mM): 145 CsCl, 2.5 NaCl, 10 HEPES, 1 EGTA, 4 MgATP, pH 7.3. Osmolarity was 300 ± 20 mOsm/L. Cells were perfused with an external solution consisting of (mM): 145 NaCl, 2.5 KCl, 1 CaCl2, 1 MgCl2, 10 HEPES, 10 glucose, pH 7.3. Prior control recordings were obtained using untransfected HEK cells to identify endogenous channel currents.
Channel currents were digitally low pass filtered at 1–2 kHz prior to analysis. […] Channel dwell states were identified using a threshold cursor method. This state transition detection method for open and shut events was used to assemble an idealised record of the digitised data. Open times affected by channel stacking were not included in the analyses and sub-conductance states were also rare and excluded from the analysis.
The analysis of the dwell times for single-channel currents was performed by fitting a mixture of exponential components to the open time distributions. These defined the mean open times and their relative proportions (area of the components) based on using a Levenberg-Marquardt non-linear least-squares routine (WinEDR ver 3.8.7, courtesy of J Dempster, University of Strathclyde).

C[C@]12CC[C@@H](O)C[C@H]1CC[C@@H]1[C@@H]2CC[C@]2(C)[C@@H](C(=O)CO)CC[C@@H]12 [THDOC, tetrahydro-deoxycorticosterone]
Ispont in the presence of modulator [1]: 0% and 0.09895% and 0.3365%
Area A1 of open time distribution (row head printed 'thdoc t2', r12) [2]: did not significantly affect
Area A2 of open time distribution (thdoc t2, r14) [2]: did not significantly affect
Area A1 of open time distribution (row head printed 'thdoc t2', r12) ([2]; listed as thdoc): 7.49E+01 and 60.19 and 6.51E+01 and 8.65E+01 and 4.84E+01 and 64.73 and 86.6 and 77.97 and 79.7 and 73.6
Area A2 of open time distribution (thdoc t2, r14) ([2]; listed as thdoc): 25.1 and 39.81 and 34.92 and 13.51 and 51.6 and 35.27 and 13.4 and 22.03 and 20.3 and 26.4
